“Also recorded” adds a separate entry of the source.
What was measured:
[1] = In vitro plasma, hepatocyte and liver microsomal stability assays (summary statement); type: in vitro ADME
[2] = in vivo; details: mouse; for B/P Ratio, individual animal / Plasma concentration, Mean / Kp at 1 h / Kp at 2 h / Kp at 4 h: male; for Kp at 1 h / Kp at 2 h / Kp at 4 h: B/P Ratio
Description: The concentration ratio of brain/plasma was calculated, and PK analysis was performed using a non-compartmental method.

[3] = in vivo; details: ICR, mouse, po, 5 mg/kg
Description: The compounds were orally administered into wild-type mice or 3×Tg, an Alzheimer's disease (AD) mouse model. […] Pharmacokinetic analysis was performed using non-compartmental methods.

[4] = tested on: TrkB; assay: Endogenous TrkB activation in DIV13 primary cortical cultures, immunoblotting; type: cell-based; details: 15 min
Description: Endogenous TrkB activation in primary neurons were tested in DIV13 primary cortical cultures. The neurons were treated with the two compounds with doses for 15 min. The lysates were analyzed by immunoblotting with antibodies.

[5] = biological target: T1, TrkB (Rattus norvegicus, UniProt Q63604); assay: TrkB activation in rat TrkB stably transfected SN56 cells (T48), immunoblotting; type: cell-based; details: treated 15 min, immunoblotting, read-out: EC50 of p-TrkB 706 and 816 activation
T1 construct: expressed in transfected cells
T1 sequence (Q63604 32-821): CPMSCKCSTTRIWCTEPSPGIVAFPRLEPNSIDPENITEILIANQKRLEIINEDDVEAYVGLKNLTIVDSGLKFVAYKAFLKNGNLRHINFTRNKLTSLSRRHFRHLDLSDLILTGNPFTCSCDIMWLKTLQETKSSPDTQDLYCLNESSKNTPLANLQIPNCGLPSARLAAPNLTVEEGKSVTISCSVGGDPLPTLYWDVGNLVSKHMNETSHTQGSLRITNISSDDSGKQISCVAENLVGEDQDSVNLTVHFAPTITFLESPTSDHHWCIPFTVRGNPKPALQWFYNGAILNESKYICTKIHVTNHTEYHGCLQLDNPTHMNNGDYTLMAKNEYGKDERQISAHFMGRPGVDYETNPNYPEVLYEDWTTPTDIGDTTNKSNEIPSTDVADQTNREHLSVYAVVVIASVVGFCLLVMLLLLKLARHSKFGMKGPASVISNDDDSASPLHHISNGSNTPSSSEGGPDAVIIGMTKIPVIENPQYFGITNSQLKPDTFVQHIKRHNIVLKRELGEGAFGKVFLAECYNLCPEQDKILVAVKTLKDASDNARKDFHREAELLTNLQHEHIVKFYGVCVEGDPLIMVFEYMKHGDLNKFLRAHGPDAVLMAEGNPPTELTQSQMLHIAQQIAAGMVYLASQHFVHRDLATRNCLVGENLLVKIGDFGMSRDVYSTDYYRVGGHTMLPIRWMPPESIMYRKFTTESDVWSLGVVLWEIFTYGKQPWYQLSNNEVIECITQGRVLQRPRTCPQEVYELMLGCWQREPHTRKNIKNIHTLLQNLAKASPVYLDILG

[6] = tested on: T48 cells; assay: Protection from staurosporine (STS)-induced apoptosis, MTT assay, T48 cells; type: cell-based
Description: Cytoprotective effects were tested. To examine whether these compounds protect cells from staurosporine (STS)-induced apoptosis, MTT assays were conducted using TrkB stable transfected cells or TrkB deficient SN56 cells.

[7] = tested on: Aβ; assay: Aβ deposition in 5×FAD mice (immunohistochemistry, thioflavin-S, ELISA); type: in vivo, mouse
Description: The deposition of Aβ was tested by immunohistochemistry with anti-AP antibody.

[8] = biological target: T2, TrkB (Mus musculus, UniProt P15209); assay: TrkB activation in brain of 5×FAD mice after chronic oral administration; type: in vivo
T2 construct: from tissue; host or cells: brain (hippocampus) of 5xFAD mice
T2 sequence (P15209 32-821): as the sequence (Q63604 32-821) above, with M3T, T9S, T10A, I32V, K63R, G84S, T153M, I185L, T394S, N770S counted along it
Excerpt: After 3 months of drug treatment, TrkB activation was monitored in the mouse brain by immunofluorescence with anti-phosphorylated TrkB (p-TrkB) antibody.

[9] = Microsomal Intrinsic Clearance (mouse); details: liver microsomes; for microsomal CLint: Mouse microsomes
[10] = Plasma Stability (mouse); type: in vitro ADME
[11] = Hepatocyte Stability (mouse); details: hepatocytes
[12] = Plasma Stability (human); type: in vitro ADME
[13] = BBB-PAMPA Permeability; type: in vitro ADME; details: Test Conc. 10 μM
[14] = Water solubility; type: physicochemical
[15] = tested on: IL-6; assay: Inflammatory factor IL-6 in 5×FAD mouse brains; type: in vivo
[16] = tested on: 5×FAD mice; assay: Synaptic loss and plasticity in 5×FAD mice (Golgi staining, electron microscopy, immunoblotting, LTP); type: in vivo, mouse
Description: The dendritic spines from apical dendritic layer of the CA1 region were analyzed by Golgi staining. (Scale bar, […]). On top is quantitative analysis of the spine density.
Synaptic loss is believed to be the basis of cognitive impairment in the early phase of Alzheimer's disease. […] The density of dendritic spines along individual dendrites of pyramidal neurons were assessed by Golgi staining. […] Since one dendritic spine can form more than one synapse, the densities of synapse in the CA1 area were quantified in 5×FAD mice brain by electron microscopy. […] Immunoblotting was done using pre-synaptic markers (synaptotagmin) and post-synaptic markers (GluR1, PSD95 and spinophilin).

[17] = Hepatocyte Stability (human); details: hepatocytes
[18] = Microsomal Intrinsic Clearance (human); details: liver microsomes; for microsomal CLint: Human microsomes
[19] = tested on: 5×FAD mice; assay: Morris water maze test in 5×FAD mice; type: in vivo, mouse
Description: The hippocampus-dependent spatial memory of 5×FAD mice was tested by Morris water maze test. The average latency and swim path length for each of the 5 acquisition days were calculated and plotted. […] The memory recall for the platform location was assessed in the probe trail when the platform was removed, and the mice were allowed to search for 60 s.

[20] = tested on: Delta-secretase (AEP, asparagine endopeptidase); assay: AEP activation and APP and Tau proteolytic cleavage in 5×FAD mice; type: in vivo, mouse
Description: The processing of APP and Tau by AEP was evaluated by western blot.
Delta-secretase (AEP, asparagine endopeptidase) cleaves both APP and Tau, mediating AD pathogenesis. […] To further investigate APP proteolytic cleavage activity by AEP, immunofluorescent co-staining was conducted on 5×FAD brain section with anti-APP C585 and AEP antibodies.

[21] = ICR, iv, 2 mg/kg, individual animal
[22] = NADPH-dependent CLint, with NADPH

N#Cc1ccc(-c2cc(=O)c3ccc4[nH]c(C(F)(F)F)nc4c3o2)cc1 [CF3-CN, 4-(6-oxo-2-(trifluoromethyl)-3,6-dihydrochromeno[7,8-d]imidazol-8-yl)benzonitrile]
stability (comparison) [1]: more stable than RM-CN | Cmax ([2]; ICR, iv, 2 mg/kg): 12700 ng/mL | Tmax ([2]; ICR, iv, 2 mg/kg): 4.8 min | B/P Ratio, individual animal ([2]; ICR, iv, 2 mg/kg, 1 h): 0.01 | Plasma concentration, Mean ([2]; ICR, iv, 2 mg/kg, 1 h): 5288.5 ng/mL | B/P Ratio, individual animal ([2]; ICR, iv, 2 mg/kg, 2 h): 0.01 | Plasma concentration, Mean ([2]; ICR, iv, 2 mg/kg, 2 h): 2154.5 ng/mL | Plasma concentration, Mean ([2]; ICR, iv, 2 mg/kg, 4 h): 544.8 ng/mL | Kp at 1 h ([2]; ICR, iv, 2 mg/kg, Mean): 0.01 | Kp at 2 h ([2]; ICR, iv, 2 mg/kg, Mean): 0.01 | Kp at 4 h ([2]; ICR, iv, 2 mg/kg, Mean): 0.02 | Kp at 1 h [2, 21]: 0.02 | Kp at 2 h [2, 21]: 0.01 | Kp at 4 h [2, 21]: 0.02 | passage of the blood-brain barrier [2]: can pass the blood-brain barrier | AUC [3]: 68500 ng·h/mL | TrkB activation in primary neurons [4]: dose-dependent effect in triggering TrkB activation | EC50 [5]: 21.6 nM | EC50 [6]: 26.7 nM | number of plaques and plaque area fraction ([7]; cortex and hippocampus, vs vehicle control): significantly decreased | Aβ42 concentrations (ELISA) ([7]; differences not statistically significant): reduction trend | Aβ deposition (immunohistochemistry) ([7]; oral, vs vehicle group): significantly lower; also recorded: decreases Aβ plaque deposition | TrkB activation in the hippocampus ([8]; oral 3 mg/kg, anti-p-TrkB Y816 immunofluorescence): provoked TrkB activation in the hippocampus | total TrkB level in mouse brain ([8]; oral, 3 months of treatment): not total TrkB level were notably elevated | TrkB activation (p-TrkB signals) in mouse brain ([8]; oral, 3 months of treatment, vs vehicle): markedly activated | phosphorylation of TrkB receptors and downstream AKT and ERK/MAPK pathways ([8]; oral, 3 months, vs vehicle control): more prominently phosphorylated | microsomal CLint [9, 22]: < 12.8 µL/min/mg | half-life ([9]; NADPH-dependent T1/2, Mouse microsomes, with NADPH): > 180 min | microsomal CLint ([9]; NADPH-free CLint, NADPH-free): < 12.8 µL/min/mg | half-life ([9]; NADPH-free T1/2, Mouse microsomes, NADPH-free): > 180 min | Avg % Remaining at Last Point [10]: 107% | half-life [10]: > 480 min | Avg % Remaining at Last Point [11]: 94.8% | half-life [11]: > 480 min | hepatocyte CLint [11]: < 2.9 µL/min/1e6 cells | Avg % Remaining at Last Point [12]: 94.2% | half-life [12]: > 480 min | Pe [13]: 3.09 | recovery at 10 μM [13]: 89.9% | water solubility (comparison) [14]: more water soluble than RM-CN | inflammatory factors IL-6 [15]: repressed | LTP (long-term potentiation) ([16]; fEPSPs induced by 3×TBS, vs vehicle): increased LTP; also recorded: reversed the LTP impairment | synaptic markers (synaptotagmin, GluR1, PSD95, spinophilin), immunoblotting ([16]; repeated oral administration): reversed the reduction of synaptic markers | synaptic density (electron microscopy) ([16]; repeated oral administration, CA1 area): remarkably reversed the loss of synaptic density in a dose-dependent way | density of dendritic spines (Golgi staining) ([16]; repeated oral administration, CA1 region): noticeably rescued; also recorded: prevents or reverses the synaptic loss | Avg % Remaining at Last Point [17]: 97.2% | half-life [17]: > 480 min | hepatocyte CLint [17]: < 2.9 µL/min/1e6 cells | microsomal CLint [18, 22]: < 12.8 µL/min/mg | half-life ([18]; NADPH-dependent T1/2, Human microsomes, with NADPH): > 180 min | microsomal CLint ([18]; NADPH-free CLint, NADPH-free): < 12.8 µL/min/mg | half-life ([18]; NADPH-free T1/2, Human microsomes, NADPH-free): > 180 min | learning impairment, area under curve (AUC) of latency ([19]; Morris water maze, 5 acquisition days): attenuated; also recorded: improves the spatial learning and memory | AUC of the swim path distance ([19]; Morris water maze, no significant statistic differences): reduction trend | percentage of time spent in target quadrant ([19]; probe trial, 60 s): significantly higher percentage of time in the target quadrant | Tau N368 staining ([20]; 5×FAD brain section): repressed | APP C585 immuno-signals ([20]; 5×FAD brain section, immunofluorescent co-staining): strongly inhibited | AEP activity (enzymatic assay) ([20]; 5×FAD mice, 3 mg/kg): blocked | AEP expression in Hippocampus ([20]; 5×FAD mice, immunofluorescence): progressively attenuated | Mature and active AEP (immunoblotting) ([20]; 5×FAD mouse brains): decreased; also recorded: significantly inhibited AEP activation | AEP-cleaved APP N373, N585 and Tau N368 truncates ([20]; 5×FAD mouse brains, western blot): reduction; also recorded: attenuated Tau and APP cleavage

From US11987589B2, “Heterocyclic flavone derivatives, compositions, and methods related thereto” (Emory University, priority 2018, dated 2024)
